The values that follow come from the supplement of paper PMC10307832.

Assay in all cases: relative viability (nuclei count vs DMSO), 5 days (fraction); higher = more cells survive
Compound in test [1]: C(C(=O)C(=O)O)Br [Bromopyruvate]
In outline:
(§1)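 MetaXpress counted nuclei in 4× images of lung cancer cell lines that had been fixed, permeabilised and Hoechst-stained in one step. Before that, cells in 1536-well plates were kept overnight at 37 °C, pinned with five √10-spaced library-drug doses on vehicle-anchored plates, and cultured 5 days without medium change. Viability takes treated-well nuclei over vehicle-well nuclei and uses the median across plates. Plates were accepted only at control CV below 25% and at least one doubling.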

Compound in test [2]: CC(O)(CS(=O)(=O)c1ccc(F)cc1)C(=O)Nc1ccc(C#N)c(C(F)(F)F)c1 [Bicalutamide]
In outline:
as §1

Compound in test [3]: C(C(=O)C(=O)O)Br [Bromopyruvate] + CC(=O)Nc1cccc(-n2c(=O)n(C3CC3)c(=O)c3c(Nc4ccc(I)cc4F)n(C)c(=O)c(C)c32)c1 [Trametinib] (partner 0.02 µM)
Summed up: (§2)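 Relative viability divides the nuclei count in treated wells by that in vehicle wells. Lung cancer cell lines were seeded in 1536-well plates, dosed by pin tool the next day, and fixed and stained after 5 days in one step with final 0.05% Triton X-100, 1% formaldehyde and 1 ug/ml Hoechst. Dosing was a single drug or a fixed anchor-drug dose plus five library-drug doses (not always all listed) in √10 steps, and values are medians of duplicate plates imaged at 4×.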

Compound in test [4]: CC(O)(CS(=O)(=O)c1ccc(F)cc1)C(=O)Nc1ccc(C#N)c(C(F)(F)F)c1 [Bicalutamide] + CC1(C)CCC(c2ccc(Cl)cc2)=C(CN2CCN(c3ccc(C(=O)NS(=O)(=O)c4ccc(N[C@H](CCN5CCOCC5)CSc5ccccc5)c(S(=O)(=O)C(F)(F)F)c4)cc3)CC2)C1 [Navitoclax] (partner 0.5 µM)
Summed up: as §2

Regarding NCI-H647, the relative viability in test [1] (1 µM) turned out to be 1; in test [1] (3.162 µM) it was 1.08; in test [1] (10 µM), 1.17; in test [1] (31.62 µM), 1.03; in test [1] (100 µM), 0.951; in test [2] (0.08 µM), 0.987. The relative viability in test [2] (0.253 µM) turned out to be 0.886; in test [2] (0.8 µM), 1.37; in test [2] (2.53 µM) it was 0.893; in test [3] (first compound 1 µM), 0.425; in test [3] (first compound 3.162 µM), 0.472; in test [3] (first compound 10 µM), 0.665. For the same cell line, the relative viability in test [3] (first compound 31.62 µM) came out at 0.473; in test [3] (first compound 100 µM) it was 0.488; in test [4] (first compound 0.08 µM), 1.15; in test [4] (first compound 0.253 µM) it was 1.09; in test [4] (first compound 0.8 µM) it was 1.46; in test [4] (first compound 2.53 µM), 1.18.
In the case of NCI-H2347, the relative viability in test [1] (1 µM) stood at 1.06; in test [1] (3.162 µM), 0.956; in test [1] (10 µM) it was 1.01; in test [1] (31.62 µM) it was 0.837; in test [1] (100 µM), 1.03; in test [2] (0.08 µM) it was 1.1. Besides, the relative viability in test [2] (0.253 µM) is 0.913; in test [2] (0.8 µM), 1.19; in test [2] (2.53 µM), 1.03; in test [3] (first compound 1 µM) it was 0.224; in test [3] (first compound 3.162 µM), 0.28; in test [3] (first compound 10 µM) it was 0.335. Besides, the relative viability in test [3] (first compound 31.62 µM) worked out at 0.248; in test [3] (first compound 100 µM) it was 0.274; in test [4] (first compound 0.08 µM) it was 0.853; in test [4] (first compound 0.253 µM), 0.795; in test [4] (first compound 0.8 µM), 0.848; in test [4] (first compound 2.53 µM) it was 0.774.
As to LCLC-97TM1, the relative viability in test [1] (1 µM) was 1.02; in test [1] (3.162 µM) it was 1.06; in test [1] (10 µM), 1; in test [1] (31.62 µM) it was 0.974; in test [1] (100 µM), 0.859; in test [2] (0.08 µM), 1.04. For the same cell line, the relative viability amounted to 0.974 in test [2] (0.253 µM); 1.29 in test [2] (0.8 µM); 0.862 in test [2] (2.53 µM); 0.193 in test [3] (first compound 1 µM); 0.188 in test [3] (first compound 3.162 µM); 0.2 in test [3] (first compound 10 µM). The relative viability in test [3] (first compound 31.62 µM) amounted to 0.165; in test [3] (first compound 100 µM) it was 0.277; in test [4] (first compound 0.08 µM), 0.558; in test [4] (first compound 0.253 µM), 0.379; in test [4] (first compound 0.8 µM), 0.573; in test [4] (first compound 2.53 µM), 0.572.
EPLC-272H: the relative viability in test [1] (1 µM) is 1.01; in test [1] (3.162 µM) it was 1.03; in test [1] (10 µM), 1.11; in test [1] (31.62 µM), 0.952; in test [1] (100 µM) it was 1.04; in test [2] (0.08 µM) it was 0.996. For the same cell line, the relative viability in test [2] (0.253 µM) worked out at 0.798; in test [2] (0.8 µM) it was 1.06; in test [2] (2.53 µM), 0.908; in test [3] (first compound 1 µM) it was 0.266; in test [3] (first compound 3.162 µM), 0.278; in test [3] (first compound 10 µM), 0.341. For the same cell line, the relative viability came out at 0.302 in test [3] (first compound 31.62 µM); 0.289 in test [3] (first compound 100 µM); 1.33 in test [4] (first compound 0.08 µM); 1.03 in test [4] (first compound 0.253 µM); 1.23 in test [4] (first compound 0.8 µM); 0.956 in test [4] (first compound 2.53 µM).
With NCI-H1915, the relative viability in test [1] (1 µM) was 1.02; in test [1] (3.162 µM), 0.984; in test [1] (10 µM), 1; in test [1] (31.62 µM), 1.01; in test [1] (100 µM) it was 0.997; in test [2] (0.08 µM), 1.01. The relative viability is 0.922 in test [2] (0.253 µM); 1.14 in test [2] (0.8 µM); 0.964 in test [2] (2.53 µM); 0.308 in test [3] (first compound 1 µM); 0.293 in test [3] (first compound 3.162 µM); 0.296 in test [3] (first compound 10 µM). Moreover, the relative viability in test [3] (first compound 31.62 µM) turned out to be 0.342; in test [3] (first compound 100 µM), 0.349; in test [4] (first compound 0.08 µM), 0.815; in test [4] (first compound 0.253 µM), 0.76; in test [4] (first compound 0.8 µM) it was 0.804; in test [4] (first compound 2.53 µM), 0.812.
